According to patent WO2016169030A1, “Fumarate and crystals of pyridylamine compound” (priority 2015, dated 2016):

Test: Humidity (wettability/hygroscopicity) test, Chinese Pharmacopoeia 2010
Format: physicochemical
Conditions: Guidelines for Drug Wetting Test, Chinese Pharmacopoeia 2010 Edition 2 Appendix XIX J; Table 2

| SMILES | Wet weight gain [%] |
| --- | --- |
| CC(=O)Nc1ncc(-c2cnn(C3CCNCC3)c2)cc1O[C@H](C)c1c(Cl)ccc(F)c1Cl.O=C(O)/C=C/C(=O)O [Fumarate] | 0.80 |
| O=C(O)CC(O)C(=O)O (stereo not drawn) [Malate] | 7.83 |
| CC(=O)Nc1ncc(-c2cnn(C3CCNCC3)c2)cc1O[C@H](C)c1c(Cl)ccc(F)c1Cl [Compound of formula (II), N-Acetyl-3-[(1R)-1-(2,6-dichloro-3-fluorophenyl)ethoxy]-5-[1-(4-piperidinyl)-1H-pyrazol-4-yl]-2-pyridinamine] | 61.75 |
